In data set [1] the test system is smooth muscle. To be noted: cited from earlier work.
A short description of data set [2]: Hydrolytic stability. It counts as physicochemical. The source says: The pharmaceutical dosage forms of the present invention can be prepared according to the examples set out below. […] Furthermore, both compounds are weak bases and the solubility and stability of the compounds are sensitive to counter-ions. In order to assure the stability of the product and to achieve desirable solubility of the dosage form, the choice of excipient is critical. Including an acidulating agent such as fumaric acid, adipic acid, succinic acid, tartaric acid, citric acid, lactic acid, maleic acid, etc., in the formulation, as well as eliminating soluble cations, is important to assure the solubility and stability of the product.

In data set [3] the test system is histamine induced bronchoconstriction. As to conditions: cited from earlier work.
Data set [4] deals with mild/moderate asthmatics not treated with inhaled corticosteroids. The data set can be described thus: ARES study: R411 monotherapy over a 12 week treatment period. It counts as in vivo, human. On the procedure:
The ARES study illustrated in FIG. 3 was designed to evaluate the safety and efficacy of monotherapy R411 over a 12 week treatment period in 480 mild/moderate asthmatics not treated with inhaled corticosteroids. Patients were randomized to one of four cohorts: 50, 200, 600 mg QD R411, or placebo (n=120/group).
The ARES study evaluated the safety and efficacy of monotherapy with R411 over a 12-week treatment period in 479 mild/moderate asthmatics not treated with inhaled corticosteroids. Patients were randomized to one of four cohorts: 50, 200, 600 mg once daily R411, or placebo.

Data set [5] deals with persistent asthmatics treated with low to medium inhaled corticosteroids. Put plainly: MARS study: R411 added to inhaled corticosteroids, 12 week treatment period. It counts as in vivo, human. To be noted: added to moderate dose inhaled corticosteroids, subpopulation with not well controlled asthma. The source says:
As set out above, a second component in the solid pharmaceutical dosage form comprises a therapeutically effective amount of R411 (N-(2-chloro-6-methylbenzoyl)-4-[(2,6-dichlorobenzoyl)amino]-L-phenylalanine-2-(diethylamino)ethyl ester), or a pharmaceutically acceptable salt thereof. […] The MARS study illustrated in FIG. 2 was designed to evaluate the safety and efficacy of R411 over a 12 week treatment period in 350 persistent asthmatics being treated with a stable dose of low to medium inhaled corticosteroids and inhaled short acting β2-agonist. Patients were randomized to one of five cohorts: 50, 200, 600 mg once daily (QD) or 300 mg twice daily (BID) R411, or placebo (n=70/group). After a 2-week placebo run-in period and subsequent 2-week add-on period (R411 or placebo), morning inhaled corticosteroids were removed. Two weeks later, evening inhaled corticosteroids were removed, and patients remained in the treatment period for an additional 8 weeks. The primary endpoint in the study was the percentage change in FEV1 from baseline, and secondary endpoint included PEFR, asthma exacerbations, (2-agonist use, asthma control questionnaire, asthma symptom scores, nocturnal awakenings, FEF25-75 and rate of asthma treatment failures.

For data set [6], the system named is atopic primate. The data set can be described thus: Airway inflammation in the atopic primate, oral R411. The format is in vivo. To be noted: oral administration, FIG. 4.
Data set [7] relates to key inflammatory cells. Put plainly: Migration of inflammatory cells from the blood into the lungs. As to conditions: in vivo.
For data set [8], the target named is T1, (Homo sapiens, UniProt P13612).
T1 sequence (P13612 34-1032): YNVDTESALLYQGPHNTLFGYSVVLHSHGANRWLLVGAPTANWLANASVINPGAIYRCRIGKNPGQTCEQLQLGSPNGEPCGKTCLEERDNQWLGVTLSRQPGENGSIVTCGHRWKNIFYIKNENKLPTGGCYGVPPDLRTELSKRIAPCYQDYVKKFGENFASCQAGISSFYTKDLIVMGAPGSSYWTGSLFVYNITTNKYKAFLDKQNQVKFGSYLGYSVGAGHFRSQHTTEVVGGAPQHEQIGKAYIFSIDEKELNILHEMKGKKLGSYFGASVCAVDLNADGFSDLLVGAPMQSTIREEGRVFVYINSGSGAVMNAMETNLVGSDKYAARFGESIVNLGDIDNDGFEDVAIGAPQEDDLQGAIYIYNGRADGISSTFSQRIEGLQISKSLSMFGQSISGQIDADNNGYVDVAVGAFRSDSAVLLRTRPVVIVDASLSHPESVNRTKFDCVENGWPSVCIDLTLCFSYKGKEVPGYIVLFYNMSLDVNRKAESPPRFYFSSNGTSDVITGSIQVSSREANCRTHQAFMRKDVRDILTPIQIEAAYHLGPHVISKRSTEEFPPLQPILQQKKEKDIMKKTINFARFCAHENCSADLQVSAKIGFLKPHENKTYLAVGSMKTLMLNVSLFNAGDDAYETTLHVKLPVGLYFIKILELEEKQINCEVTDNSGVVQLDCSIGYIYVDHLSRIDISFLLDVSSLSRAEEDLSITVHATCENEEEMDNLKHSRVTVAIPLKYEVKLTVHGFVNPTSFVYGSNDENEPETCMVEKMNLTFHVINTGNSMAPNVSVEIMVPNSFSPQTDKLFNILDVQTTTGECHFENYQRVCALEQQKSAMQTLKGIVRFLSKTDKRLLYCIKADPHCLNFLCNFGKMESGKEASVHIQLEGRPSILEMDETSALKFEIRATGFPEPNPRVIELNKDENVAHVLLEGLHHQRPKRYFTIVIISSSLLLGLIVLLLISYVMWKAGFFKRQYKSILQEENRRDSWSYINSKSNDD
The data set can be described thus: In vitro binding to α4 integrin, activated and not activated.

Data set [9] has as its target α4/β1 (Homo sapiens, UniProt P05556+P13612). Put plainly: Inhibition of binding of α4/β1 to VCAM-1. The source says:
(§1) R411 inhibits the binding of α4/β1 to vascular cell adhesion molecule (VCAM-1) and α4/β7 to MadCAM-1 by […] is disclosed in U.S. Pat. No. 6,229,011, which disclosure is incorporated by reference herein.

The target of data set [10] is T2, α4/β7 (Homo sapiens, UniProt P13612+P26010).
T2 sequence (P13612 34-1032): T1 sequence (P13612 34-1032)
T2 sequence (P26010 20-798): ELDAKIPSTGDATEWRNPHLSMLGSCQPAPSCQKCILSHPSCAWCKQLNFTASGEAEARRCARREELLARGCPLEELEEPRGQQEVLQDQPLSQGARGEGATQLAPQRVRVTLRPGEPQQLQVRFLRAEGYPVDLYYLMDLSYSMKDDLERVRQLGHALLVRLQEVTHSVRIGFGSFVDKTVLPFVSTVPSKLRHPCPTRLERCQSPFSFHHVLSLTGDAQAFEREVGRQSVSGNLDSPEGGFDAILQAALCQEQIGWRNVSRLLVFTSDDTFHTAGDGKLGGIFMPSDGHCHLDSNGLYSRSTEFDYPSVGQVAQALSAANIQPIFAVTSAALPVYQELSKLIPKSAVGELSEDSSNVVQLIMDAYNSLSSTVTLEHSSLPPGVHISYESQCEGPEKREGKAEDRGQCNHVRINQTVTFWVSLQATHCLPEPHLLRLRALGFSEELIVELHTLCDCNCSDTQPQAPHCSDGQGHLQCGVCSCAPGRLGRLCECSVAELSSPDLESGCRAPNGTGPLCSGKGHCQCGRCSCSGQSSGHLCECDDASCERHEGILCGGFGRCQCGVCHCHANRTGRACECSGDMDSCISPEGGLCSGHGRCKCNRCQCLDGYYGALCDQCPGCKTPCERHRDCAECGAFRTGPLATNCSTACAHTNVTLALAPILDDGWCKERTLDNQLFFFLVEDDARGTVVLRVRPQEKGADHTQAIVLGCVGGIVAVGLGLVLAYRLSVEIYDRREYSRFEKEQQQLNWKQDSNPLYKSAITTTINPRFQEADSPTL
The data set can be described thus: Inhibition of binding of α4/β7 to MadCAM-1.
Excerpt: as §1

Data set [11] addresses plasma cholinesterase (Homo sapiens, UniProt P06276). As to conditions: cited from earlier work.

Sequence of α4/β1 (P05556 21-798, one chain of several): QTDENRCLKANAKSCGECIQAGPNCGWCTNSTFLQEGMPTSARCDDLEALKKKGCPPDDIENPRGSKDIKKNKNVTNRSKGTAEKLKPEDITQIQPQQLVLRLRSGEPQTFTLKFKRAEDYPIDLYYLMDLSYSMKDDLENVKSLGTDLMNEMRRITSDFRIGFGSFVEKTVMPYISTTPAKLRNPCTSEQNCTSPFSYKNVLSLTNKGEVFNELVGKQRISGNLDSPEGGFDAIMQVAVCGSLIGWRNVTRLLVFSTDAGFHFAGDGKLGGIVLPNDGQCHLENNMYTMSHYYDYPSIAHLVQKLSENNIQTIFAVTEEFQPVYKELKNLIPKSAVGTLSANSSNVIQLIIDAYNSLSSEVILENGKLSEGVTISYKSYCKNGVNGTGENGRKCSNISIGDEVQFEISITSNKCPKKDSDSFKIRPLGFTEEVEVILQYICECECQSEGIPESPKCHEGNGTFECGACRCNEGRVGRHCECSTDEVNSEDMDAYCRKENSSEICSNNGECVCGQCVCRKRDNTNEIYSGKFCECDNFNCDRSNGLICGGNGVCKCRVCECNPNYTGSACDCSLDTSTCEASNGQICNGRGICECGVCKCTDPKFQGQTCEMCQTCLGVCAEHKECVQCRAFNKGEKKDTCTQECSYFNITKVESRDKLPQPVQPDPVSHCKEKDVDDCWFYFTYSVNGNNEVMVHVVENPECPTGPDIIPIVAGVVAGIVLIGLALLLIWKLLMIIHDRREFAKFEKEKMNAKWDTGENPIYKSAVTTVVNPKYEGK
Sequence of plasma cholinesterase (P06276 29-602): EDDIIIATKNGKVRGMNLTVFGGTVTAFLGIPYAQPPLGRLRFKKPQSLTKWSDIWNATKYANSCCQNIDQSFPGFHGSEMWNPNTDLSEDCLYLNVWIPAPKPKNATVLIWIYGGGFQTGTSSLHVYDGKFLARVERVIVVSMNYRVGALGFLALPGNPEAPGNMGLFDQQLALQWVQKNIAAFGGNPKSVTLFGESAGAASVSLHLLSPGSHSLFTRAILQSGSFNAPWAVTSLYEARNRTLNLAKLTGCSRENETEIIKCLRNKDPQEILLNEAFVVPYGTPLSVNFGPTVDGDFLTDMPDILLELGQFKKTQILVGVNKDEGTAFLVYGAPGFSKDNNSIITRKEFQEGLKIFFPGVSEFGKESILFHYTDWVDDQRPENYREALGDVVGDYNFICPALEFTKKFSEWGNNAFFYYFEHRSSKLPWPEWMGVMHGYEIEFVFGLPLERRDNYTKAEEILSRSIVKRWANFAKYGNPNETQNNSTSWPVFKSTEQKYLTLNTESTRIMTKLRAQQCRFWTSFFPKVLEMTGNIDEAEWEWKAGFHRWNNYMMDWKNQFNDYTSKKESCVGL

Turning to `CN(C)C(=O)Oc1cc(O)cc(C(O)CNC(C)(C)C)c1` (centres unmarked) [monocarbamate ester], in [1], the “smooth muscle relaxing properties” value was “did not exert any”.
As to `CN(C)C(=O)Oc1cc(OC(=O)N(C)C)cc(C(O)CNC(C)(C)C)c1` (centres unmarked) [Bambuterol, dimethylcarbamic acid 5-[2-[(1,1-dimethylethyl)amino]-1-hydroxyethyl]-1,3-phenylene ester], the hydrolytic degradation entry in [2] is recorded as “susceptible to hydrolytic degradation”. Besides, the “duration of the relaxing activity” value in [3] (equipotent doses, compared with terbutaline) is recorded as “more prolonged”. Further, in data set [3] (oral administration), the “protective effect against histamine induced bronchoconstriction” value is on record as “sustained protective effect”. Also, the “smooth muscle relaxing properties” value in [1] is reported as “did not exert any”.
Turning to `CCN(CC)CCOC(=O)[C@H](Cc1ccc(NC(=O)c2c(Cl)cccc2Cl)cc1)NC(=O)c1c(C)cccc1Cl` [R411, N-(2-Chloro-6-methylbenzoyl)-4-[(2,6-dichlorobenzoyl)amino]-L-phenylalanine-2-(diethylamino)ethyl ester], in [4] (compared to placebo), the “Asthma Control Questionnaire Scores” value is “Improvement” and the “Asthma Quality-of-Life” value is given as “Improvement”. In data set [4] (monotherapy, 12 weeks), the “decrease in daytime asthma symptom score” value is listed as “Statistically significant improvements”, the “decrease in nocturnal symptom score” value is “Statistically significant improvements” and the “reducing rescue albuterol use” value is recorded as “Statistically significant improvements”. Further, the “small airway flow rates as measured by FEF25-75” value in data set [4] (monotherapy, FIG. 3) is reported as “significant effect”. Moreover, the “large airway flow rates as measured by FEV1” value in data set [5] (FIG. 1) is “additive effect”. Moreover, the “small airway flow rates measured by FEF25-75” value in [5] (FIG. 2) is recorded as “additive effect”. Besides, the airway inflammation entry in data set [6] was “attenuates airway inflammation”. Besides, the “migration of key inflammatory cells from the blood into the lungs” value in [7] is listed as “block the migration”. Besides, in data set [8] (activated α4 ligand), the binding affinity entry is “high affinity” and the dissociation result was “slow dissociation”. In addition, in data set [8] (receptor not activated), the dissociation result is given as “more rapid” and the “in vitro binding affinity” value was “lower”. Further, in data set [9], the “binding of α4/β1 to VCAM-1” value is “inhibits” and the “effectiveness against α4/β1 integrin” value was “effective”. Besides, in data set [10], the “binding of α4/β7 to MadCAM-1” value was “inhibits” and the “effectiveness against α4/β7 integrin” value is recorded as “effective”. Besides, in data set [2], the hydrolytic degradation result is “susceptible to hydrolytic degradation”.
As for `CN(C)C(=O)Oc1cc(OC(=O)N(C)C)cc([C@H](O)CNC(C)(C)C)c1` [(+)-bambuterol], the “activity as plasma cholinesterase inhibitors” value in [11] is on record as “equally active”.
Turning to `CN(C)C(=O)Oc1cc(OC(=O)N(C)C)cc(C(O)CNC(C)(C)C)c1` (single isomer, unassigned; (-)) [(−)-bambuterol], the “activity as plasma cholinesterase inhibitors” value in [11] is recorded as “equally active”.

Values taken from patent publication US20060177503A1, “Bambuterol and integrin inhibitor combination and treatment method” (priority 2005, published 2006).
